According to patent US20240210412A1, “SULFONYL-TRIAZOLE COMPOUNDS USEFUL AS LIGANDS AND INHIBITORS OF PROSTAGLANDIN REDUCTASE 2” (University of Virginia Patent Foundation, priority 2021, published 2024):

Legend:
Assay in all cases: SILAC LC-MS ABPP
Assay type in all cases: cell-based
Conditions in all cases: 25 μM 2 h, live DM93 cells
P26599 = target: T1, P26599 (Homo sapiens, UniProt P26599)
T1 construct: endogenous in cells; host or cells: DM93 (SILAC)
Summary of the method: (§1)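 First, heavy-labelled DM93 cells were exposed to SuTEx ligand (25 μM) and light cells to DMSO, 2 h at 37 °C. Second, HHS-475 (100 μM) was added for 2 h. Third, soluble lysates were clicked to desthiobiotin-azide, pooled 1:1, trypsin-digested, avidin-enriched and analysed by LC-MS/MS.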

Q16836 = target: T2, Q16836 (Homo sapiens, UniProt Q16836)
T2 construct: performing SuTEx compound screening directly in cells; endogenous in cells; host or cells: DM93 cells (SILAC), soluble fraction
Summary of the method: as §1

Q9NUJ1 = target: T3, Q9NUJ1 (Homo sapiens, UniProt Q9NUJ1)
T3 construct: endogenous in cells; host or cells: DM93 cells (SILAC), treated live; soluble proteome analysed
Summary of the method: as §1

P17066 = target: T4, P17066 (Homo sapiens, UniProt P17066)
T4 construct: Probe-modified proteins from the soluble fraction were conjugated to a desthiobiotin-azide tag; endogenous in cells; host or cells: DM93 (SILAC)
Summary of the method: as §1

Q9Y2H2 = target: T5, Q9Y2H2 (Homo sapiens, UniProt Q9Y2H2)
T5 construct: endogenous in cells; host or cells: DM93 cells (SILAC)
Summary of the method: as §1

P57081 = target: T6, P57081 (Homo sapiens, UniProt P57081)
T6 construct: Probe-modified proteins from the soluble fraction were conjugated to a desthiobiotin-azide tag; endogenous in cells; host or cells: DM93 cells (SILAC)
Summary of the method: as §1

P09960 = target: T7, P09960 (Homo sapiens, UniProt P09960)
T7 construct: endogenous in cells; host or cells: DM93 cells (SILAC)
Summary of the method: as §1

Q8N6H7 = target: T8, Q8N6H7 (Homo sapiens, UniProt Q8N6H7)
T8 construct: endogenous in cells; host or cells: DM93 cells (SILAC), live-cell treatment
Summary of the method: as §1

Q12931 = target: T9, Q12931 (Homo sapiens, UniProt Q12931)
T9 construct: performing SuTEx compound screening directly in cells; endogenous in cells; host or cells: DM93 cells (SILAC)
Summary of the method: as §1

T7 sequence (P09960 whole entry): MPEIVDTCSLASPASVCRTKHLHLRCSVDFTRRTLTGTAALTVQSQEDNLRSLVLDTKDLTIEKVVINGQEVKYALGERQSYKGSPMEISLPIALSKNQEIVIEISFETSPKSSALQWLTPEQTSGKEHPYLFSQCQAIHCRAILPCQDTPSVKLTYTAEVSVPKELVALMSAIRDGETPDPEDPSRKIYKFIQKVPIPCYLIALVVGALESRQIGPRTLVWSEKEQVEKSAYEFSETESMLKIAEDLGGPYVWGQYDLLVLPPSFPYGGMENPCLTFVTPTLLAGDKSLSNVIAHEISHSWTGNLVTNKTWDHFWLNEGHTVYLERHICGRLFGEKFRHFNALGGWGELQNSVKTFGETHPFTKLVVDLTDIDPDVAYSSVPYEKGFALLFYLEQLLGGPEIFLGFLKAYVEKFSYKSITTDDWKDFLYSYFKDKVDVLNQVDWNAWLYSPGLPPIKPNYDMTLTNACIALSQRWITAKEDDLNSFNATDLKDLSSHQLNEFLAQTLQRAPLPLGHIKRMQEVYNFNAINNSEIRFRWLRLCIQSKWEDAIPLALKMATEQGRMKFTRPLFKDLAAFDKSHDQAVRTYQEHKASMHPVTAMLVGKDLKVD
T4 sequence (P17066 whole entry): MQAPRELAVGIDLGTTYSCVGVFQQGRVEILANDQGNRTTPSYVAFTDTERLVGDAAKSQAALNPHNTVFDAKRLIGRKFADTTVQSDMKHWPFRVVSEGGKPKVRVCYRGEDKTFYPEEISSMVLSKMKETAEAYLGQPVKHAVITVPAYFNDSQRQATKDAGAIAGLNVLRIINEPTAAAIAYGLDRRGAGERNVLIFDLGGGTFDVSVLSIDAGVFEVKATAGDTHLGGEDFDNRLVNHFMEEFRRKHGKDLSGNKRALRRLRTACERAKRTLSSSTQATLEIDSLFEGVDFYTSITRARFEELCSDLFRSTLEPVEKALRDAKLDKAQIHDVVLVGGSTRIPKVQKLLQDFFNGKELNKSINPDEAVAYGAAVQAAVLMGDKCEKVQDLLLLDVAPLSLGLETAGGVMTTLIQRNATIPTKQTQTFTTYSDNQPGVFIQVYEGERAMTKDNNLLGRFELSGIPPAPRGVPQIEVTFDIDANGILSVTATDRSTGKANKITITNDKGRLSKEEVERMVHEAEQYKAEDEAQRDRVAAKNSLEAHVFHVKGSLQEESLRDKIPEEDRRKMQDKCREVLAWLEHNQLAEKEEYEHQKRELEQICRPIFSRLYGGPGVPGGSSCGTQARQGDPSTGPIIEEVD
T9 sequence (Q12931 60-704): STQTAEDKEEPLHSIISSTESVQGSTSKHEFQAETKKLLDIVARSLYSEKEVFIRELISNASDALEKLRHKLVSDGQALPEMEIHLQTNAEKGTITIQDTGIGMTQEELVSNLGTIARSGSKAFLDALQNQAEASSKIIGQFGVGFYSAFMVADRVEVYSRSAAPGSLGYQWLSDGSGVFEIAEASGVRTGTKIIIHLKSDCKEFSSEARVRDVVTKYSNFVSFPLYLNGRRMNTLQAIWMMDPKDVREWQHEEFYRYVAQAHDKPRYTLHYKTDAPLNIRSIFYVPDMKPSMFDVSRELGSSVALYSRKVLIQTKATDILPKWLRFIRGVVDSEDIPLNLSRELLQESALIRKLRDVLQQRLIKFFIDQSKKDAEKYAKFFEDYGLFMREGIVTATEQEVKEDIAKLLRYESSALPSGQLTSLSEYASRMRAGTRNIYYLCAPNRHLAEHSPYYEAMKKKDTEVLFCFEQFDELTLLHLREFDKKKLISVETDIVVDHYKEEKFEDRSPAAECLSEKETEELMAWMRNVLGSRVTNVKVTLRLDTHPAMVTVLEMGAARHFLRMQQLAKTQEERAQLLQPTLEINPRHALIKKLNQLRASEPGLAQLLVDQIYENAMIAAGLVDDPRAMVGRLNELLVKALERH
T5 sequence (Q9Y2H2 whole entry): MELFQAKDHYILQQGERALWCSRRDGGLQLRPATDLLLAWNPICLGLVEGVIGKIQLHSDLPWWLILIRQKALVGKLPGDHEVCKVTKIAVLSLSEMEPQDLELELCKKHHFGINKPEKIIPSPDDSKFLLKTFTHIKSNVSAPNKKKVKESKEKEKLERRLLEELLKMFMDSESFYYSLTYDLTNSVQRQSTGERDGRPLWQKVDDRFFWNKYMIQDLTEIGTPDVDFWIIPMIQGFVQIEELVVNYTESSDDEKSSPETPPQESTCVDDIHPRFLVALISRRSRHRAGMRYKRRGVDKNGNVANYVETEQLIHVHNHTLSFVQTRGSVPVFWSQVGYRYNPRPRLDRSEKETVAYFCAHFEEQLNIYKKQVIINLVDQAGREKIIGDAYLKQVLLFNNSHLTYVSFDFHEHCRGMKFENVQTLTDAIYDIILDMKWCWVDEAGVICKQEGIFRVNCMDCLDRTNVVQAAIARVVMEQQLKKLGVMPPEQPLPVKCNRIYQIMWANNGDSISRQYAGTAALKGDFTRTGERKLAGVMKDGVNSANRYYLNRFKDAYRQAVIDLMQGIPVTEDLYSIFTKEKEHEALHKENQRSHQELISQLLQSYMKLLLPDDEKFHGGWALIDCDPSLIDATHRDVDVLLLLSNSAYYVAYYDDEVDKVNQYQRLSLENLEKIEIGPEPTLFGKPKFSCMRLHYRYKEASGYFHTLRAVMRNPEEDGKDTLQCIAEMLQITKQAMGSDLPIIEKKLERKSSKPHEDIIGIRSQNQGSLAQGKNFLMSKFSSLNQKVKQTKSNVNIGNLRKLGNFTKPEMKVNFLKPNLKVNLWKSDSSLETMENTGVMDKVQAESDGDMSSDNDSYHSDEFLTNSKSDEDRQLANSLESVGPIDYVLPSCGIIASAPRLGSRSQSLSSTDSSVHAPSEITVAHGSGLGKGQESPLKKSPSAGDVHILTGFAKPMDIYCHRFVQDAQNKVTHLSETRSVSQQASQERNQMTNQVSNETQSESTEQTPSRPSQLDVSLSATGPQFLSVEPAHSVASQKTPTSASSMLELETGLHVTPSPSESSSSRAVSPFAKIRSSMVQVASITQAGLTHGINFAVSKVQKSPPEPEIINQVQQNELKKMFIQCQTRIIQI
T8 sequence (Q8N6H7 whole entry): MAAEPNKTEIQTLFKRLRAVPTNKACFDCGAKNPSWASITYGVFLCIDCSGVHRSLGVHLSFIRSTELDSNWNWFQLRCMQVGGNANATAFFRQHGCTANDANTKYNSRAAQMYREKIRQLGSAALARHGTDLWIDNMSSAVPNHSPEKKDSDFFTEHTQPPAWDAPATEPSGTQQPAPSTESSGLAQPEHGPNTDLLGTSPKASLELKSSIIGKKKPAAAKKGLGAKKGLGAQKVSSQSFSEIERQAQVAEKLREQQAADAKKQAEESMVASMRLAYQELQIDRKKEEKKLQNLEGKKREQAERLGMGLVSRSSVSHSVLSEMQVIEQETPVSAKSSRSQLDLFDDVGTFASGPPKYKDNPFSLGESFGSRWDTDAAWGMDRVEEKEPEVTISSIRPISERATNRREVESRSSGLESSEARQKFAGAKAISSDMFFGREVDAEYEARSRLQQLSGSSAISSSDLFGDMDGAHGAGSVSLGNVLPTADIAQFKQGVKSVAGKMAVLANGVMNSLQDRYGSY
T2 sequence (Q16836 13-314): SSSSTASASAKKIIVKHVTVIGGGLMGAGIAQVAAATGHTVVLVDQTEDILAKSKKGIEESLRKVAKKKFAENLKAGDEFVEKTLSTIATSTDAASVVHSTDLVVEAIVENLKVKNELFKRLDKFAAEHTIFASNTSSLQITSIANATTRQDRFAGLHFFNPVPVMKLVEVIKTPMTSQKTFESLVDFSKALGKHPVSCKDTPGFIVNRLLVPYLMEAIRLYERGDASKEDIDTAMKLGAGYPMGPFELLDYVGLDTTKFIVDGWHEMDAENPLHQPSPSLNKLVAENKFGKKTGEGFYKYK
T1 sequence (P26599 whole entry): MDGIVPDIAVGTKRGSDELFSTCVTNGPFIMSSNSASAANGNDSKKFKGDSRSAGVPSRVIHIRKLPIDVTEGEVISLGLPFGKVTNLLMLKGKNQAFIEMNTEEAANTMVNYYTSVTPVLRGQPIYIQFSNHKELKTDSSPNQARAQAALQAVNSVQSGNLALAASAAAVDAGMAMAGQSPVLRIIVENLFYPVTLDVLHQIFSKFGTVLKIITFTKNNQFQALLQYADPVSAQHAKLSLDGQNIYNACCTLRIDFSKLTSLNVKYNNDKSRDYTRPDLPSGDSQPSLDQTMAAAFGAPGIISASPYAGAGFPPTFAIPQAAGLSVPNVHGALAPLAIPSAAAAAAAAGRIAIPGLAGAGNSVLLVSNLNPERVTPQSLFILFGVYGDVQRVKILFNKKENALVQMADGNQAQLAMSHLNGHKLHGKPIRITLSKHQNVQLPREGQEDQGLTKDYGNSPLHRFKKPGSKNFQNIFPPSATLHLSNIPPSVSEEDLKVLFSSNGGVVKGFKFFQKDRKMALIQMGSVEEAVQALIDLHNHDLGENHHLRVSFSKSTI
T3 sequence (Q9NUJ1 53-306): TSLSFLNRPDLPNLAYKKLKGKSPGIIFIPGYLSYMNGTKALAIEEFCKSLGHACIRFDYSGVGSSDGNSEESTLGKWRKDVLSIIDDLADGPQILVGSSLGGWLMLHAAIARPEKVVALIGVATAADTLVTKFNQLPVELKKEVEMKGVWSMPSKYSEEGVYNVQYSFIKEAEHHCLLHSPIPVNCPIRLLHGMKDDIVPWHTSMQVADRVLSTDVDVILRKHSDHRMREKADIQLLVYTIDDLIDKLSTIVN

Q: With `O=C(NC1CC1)c1ccc(S(=O)(=O)n2cncn2)cc1` [HHS-0101, 4-((1H-1,2,4-triazol-1-yl)sulfonyl)-N-cyclopropylbenzamide] as the compound, how does the “liganded tyrosine site 430” value (P26599) read?
A: Its value is “HHS0101.Y|HHS0201.Y|HHS0401.Y (tyrosine sites that showed >80% reductions (SR >5) in probe labeling in cells treated with compounds (liganded sites))”.

Q: For `O=C(NCC1CC1)c1ccc(S(=O)(=O)n2cncn2)cc1` [HHS-0201, 4-((1H-1,2,4-triazol-1-yl)sulfonyl)-N-(cyclopropylmethyl)benzamide], which “liganded tyrosine site 264” value (Q16836) is on record?
A: Its value is “HHS0201.Y|HHS0401.Y|HHS0701.Y (tyrosine sites that showed >80% reductions (SR >5) in probe labeling in cells treated with compounds (liganded sites))”.

Q: What about the “liganded tyrosine site 215” value (Q9NUJ1) of the same compound?
A: The value was “HHS0201.Y|HHS0701.Y (tyrosine sites that showed >80% reductions (SR >5) in probe labeling in cells treated with compounds (liganded sites))”.

Q: `O=C(NC1CCCCC1)c1ccc(S(=O)(=O)n2cncn2)cc1` [HHS-0301, 4-((1H-1,2,4-triazol-1-yl)sulfonyl)-N-cyclohexylbenzamide] was tested. Which “liganded tyrosine site 373” value (P17066) did it give?
A: The value was “HHS0301.Y (tyrosine sites that showed >80% reductions (SR >5) in probe labeling in cells treated with compounds (liganded sites))”.

Q: With `O=C(NCc1ccccc1)c1ccc(S(=O)(=O)n2cncn2)cc1` [HHS-0401, 4-((1H-1,2,4-triazol-1-yl)sulfonyl)-N-benzylbenzamide] as the compound, how does the “liganded tyrosine site 887” value (Q9Y2H2) read?
A: The value was “HHS0401.Y|HHS0701.Y (tyrosine sites that showed >80% reductions (SR >5) in probe labeling in cells treated with compounds (liganded sites))”.

Q: What about the “liganded tyrosine site 371” value (P57081) of the same compound?
A: The value was “HHS0401.Y (tyrosine sites that showed >80% reductions (SR >5) in probe labeling in cells treated with compounds (liganded sites))”.

Q: How did the “liganded tyrosine site 379” value (P09960) turn out when `O=C(c1ccc(S(=O)(=O)n2cncn2)cc1)N1CCC(c2ccccc2)CC1` [HHS-0701, (4-((1H-1,2,4-triazol-1-yl)sulfonyl)phenyl)(4-phenylpiperidin-1-yl)methanone] was run?
A: The value was “HHS0701.Y (tyrosine sites that showed >80% reductions (SR >5) in probe labeling in cells treated with compounds (liganded sites))”.

Q: And the “liganded tyrosine site 384” value (P09960)?
A: The value was “HHS0701.Y (tyrosine sites that showed >80% reductions (SR >5) in probe labeling in cells treated with compounds (liganded sites))”.

Q: What about the “liganded tyrosine site 445” value (Q8N6H7) of the same compound?
A: The value was “HHS0701.Y (tyrosine sites that showed >80% reductions (SR >5) in probe labeling in cells treated with compounds (liganded sites))”.

Q: And the “liganded tyrosine site 559” value (Q12931)?
A: Its value is “HHS0701.Y (tyrosine sites that showed >80% reductions (SR >5) in probe labeling in cells treated with compounds (liganded sites))”.
